{"source": "ChEMBL document CHEMBL1649540", "about": "“The novel CXCR4 antagonist KRH-3955 is an orally bioavailable and extremely potent inhibitor of human immunodeficiency virus type 1 infection: comparative studies with AMD3100” (Antimicrob Agents Chemother, 2009)", "key": {"[1]": {"experiment": "Cmax in Sprague-Dawley rat at 10 mg/kg, po administered as single dose", "type": "ADME, organism-based", "design": "dose 10 mg/kg, route oral", "settings": "in vivo"}, "[2]": {"molecular_target": "C-X-C chemokine receptor type 4 (Homo sapiens, UniProt P61073, H203A)", "sequence (P61073 whole entry H203A)": "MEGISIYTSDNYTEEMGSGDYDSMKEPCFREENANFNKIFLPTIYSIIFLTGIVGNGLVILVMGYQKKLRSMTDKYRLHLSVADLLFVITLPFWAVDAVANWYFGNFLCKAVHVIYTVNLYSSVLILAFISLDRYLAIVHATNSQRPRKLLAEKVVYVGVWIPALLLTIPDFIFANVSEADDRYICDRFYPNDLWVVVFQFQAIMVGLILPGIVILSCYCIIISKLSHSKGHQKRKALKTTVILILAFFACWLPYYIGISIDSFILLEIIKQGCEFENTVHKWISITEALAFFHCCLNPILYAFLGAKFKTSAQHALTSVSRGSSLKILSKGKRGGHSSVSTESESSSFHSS", "experiment": "(§1) Inhibition of Mab 12G5 binding to CXCR4 H203A mutant expressed in HEK293 cells", "type": "cell-based"}, "[3]": {"test_system": "C-X-C chemokine receptor type 4 (Homo sapiens), P61073 [H203A]", "sequence (P61073 whole entry H203A)": "as above", "experiment": "as §1", "type": "cell-based"}, "[4]": {"molecular_target": "C-X-C chemokine receptor type 4 (Homo sapiens, UniProt P61073, E277A)", "sequence (P61073 whole entry E277A)": "as the sequence (P61073 whole entry H203A) above, with A203H, E277A counted along it"}, "[5]": {"molecular_target": "C-C chemokine receptor type 2 (Homo sapiens) (UniProt P41597)", "sequence (P41597 whole entry, looked up)": "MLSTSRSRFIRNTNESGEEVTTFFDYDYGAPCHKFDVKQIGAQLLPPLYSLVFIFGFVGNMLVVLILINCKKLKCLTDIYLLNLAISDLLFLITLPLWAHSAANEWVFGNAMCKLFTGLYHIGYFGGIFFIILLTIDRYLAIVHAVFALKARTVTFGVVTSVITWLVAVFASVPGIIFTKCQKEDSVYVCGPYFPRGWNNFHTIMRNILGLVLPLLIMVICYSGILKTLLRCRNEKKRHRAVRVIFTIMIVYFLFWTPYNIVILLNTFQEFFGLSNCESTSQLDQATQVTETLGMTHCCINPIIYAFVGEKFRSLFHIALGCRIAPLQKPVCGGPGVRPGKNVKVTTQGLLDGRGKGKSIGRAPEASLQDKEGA", "experiment": "Displacement of [125I]MCP1 form CCR2b expressed in CHO cells by scintillation counting", "type": "cell-based"}, "[6]": {"molecular_target": "C-X-C chemokine receptor type 4 (Homo sapiens, UniProt P61073, D262A)", "sequence (P61073 whole entry D262A)": "as the sequence (P61073 whole entry H203A) above, with A203H, D262A counted along it"}, "[7]": {"molecular_target": "C-X-C chemokine receptor type 4 (Homo sapiens, UniProt P61073, E288A/L290A)", "sequence (P61073 whole entry E288A/L290A)": "as the sequence (P61073 whole entry H203A) above, with A203H, E288A, L290A counted along it"}, "[8]": {"molecular_target": "C-X-C chemokine receptor type 4 (Homo sapiens, UniProt P61073, V280A)", "sequence (P61073 whole entry V280A)": "as the sequence (P61073 whole entry H203A) above, with A203H, V280A counted along it", "experiment": "(§2) Inhibition of Mab 12G5 binding to CXCR4 V280A mutant expressed in HEK293 cells", "type": "cell-based"}, "[9]": {"test_system": "C-X-C chemokine receptor type 4 (Homo sapiens), P61073 [V280A]", "sequence (P61073 whole entry V280A)": "as the sequence (P61073 whole entry H203A) above, with A203H, V280A counted along it", "experiment": "as §2", "type": "cell-based"}, "[10]": {"molecular_target": "T1, C-X-C chemokine receptor type 4 (Homo sapiens, UniProt P61073)", "T1 sequence (P61073 whole entry)": "as the sequence (P61073 whole entry H203A) above, with A203H counted along it", "experiment": "Inhibition of Mab 44717 binding to CXCR4 expressed in human MOLT4 cells by FACS analysis", "type": "cell-based", "settings": "MOLT-4"}, "[11]": {"molecular_target": "C-X-C chemokine receptor type 4 (Homo sapiens, UniProt P61073, H113A)", "sequence (P61073 whole entry H113A)": "as the sequence (P61073 whole entry H203A) above, with H113A, A203H counted along it"}, "[12]": {"molecular_target": "C-X-C chemokine receptor type 4 (Homo sapiens, UniProt P61073, V99A)", "sequence (P61073 whole entry V99A)": "as the sequence (P61073 whole entry H203A) above, with V99A, A203H counted along it", "experiment": "(§3) Inhibition of Mab 12G5 binding to CXCR4 V99A mutant expressed in HEK293 cells", "type": "cell-based"}, "[13]": {"test_system": "C-X-C chemokine receptor type 4 (Homo sapiens), P61073 [V99A]", "sequence (P61073 whole entry V99A)": "as the sequence (P61073 whole entry H203A) above, with V99A, A203H counted along it", "experiment": "as §3", "type": "cell-based"}, "[14]": {"molecular_target": "T1, C-X-C chemokine receptor type 4", "experiment": "Inhibition of Mab A145 binding to CXCR4 expressed in human MOLT4 cells at 0.1 to 1000 nM by FACS analysis", "type": "cell-based", "settings": "MOLT-4"}, "[15]": {"experiment": "Half life in Sprague-Dawley rat at 10 mg/kg, iv administered as single dose", "type": "ADME, organism-based", "design": "dose 10 mg/kg, route intravenous", "settings": "in vivo"}, "[16]": {"test_system": "C-X-C chemokine receptor type 4 (Homo sapiens), P61073 [D171A]", "sequence (P61073 whole entry D171A)": "as the sequence (P61073 whole entry H203A) above, with D171A, A203H counted along it", "settings": "HEK293"}, "[17]": {"test_system": "Human immunodeficiency virus 1", "experiment": "Antiviral activity against NNRTI-resistant HIV1 HXB2 infected in HEK293 cells assessed as inhibition of viral replication after 2 days", "type": "functional, organism-based", "settings": "Human immunodeficiency virus 1, HXB2, HEK293, 48 h"}, "[18]": {"test_system": "Human immunodeficiency virus 1", "experiment": "Antiviral activity against HIV1 JRCSF infected in human PBMC assessed as inhibition of viral p24 antigen production after 7 to 10 days by ELISA", "type": "functional", "settings": "Human immunodeficiency virus 1, JRCSF ISOLATE"}, "[19]": {"test_system": "Human immunodeficiency virus 1", "experiment": "Antiviral activity against HIV1 X4 infected in human PBMC assessed as inhibition of viral p24 antigen production after 7 to 10 days by ELISA", "type": "functional, organism-based", "settings": "Human immunodeficiency virus 1, X4"}, "[20]": {"molecular_target": "C-C chemokine receptor type 1 (Homo sapiens) (UniProt P32246)", "sequence (P32246 whole entry)": "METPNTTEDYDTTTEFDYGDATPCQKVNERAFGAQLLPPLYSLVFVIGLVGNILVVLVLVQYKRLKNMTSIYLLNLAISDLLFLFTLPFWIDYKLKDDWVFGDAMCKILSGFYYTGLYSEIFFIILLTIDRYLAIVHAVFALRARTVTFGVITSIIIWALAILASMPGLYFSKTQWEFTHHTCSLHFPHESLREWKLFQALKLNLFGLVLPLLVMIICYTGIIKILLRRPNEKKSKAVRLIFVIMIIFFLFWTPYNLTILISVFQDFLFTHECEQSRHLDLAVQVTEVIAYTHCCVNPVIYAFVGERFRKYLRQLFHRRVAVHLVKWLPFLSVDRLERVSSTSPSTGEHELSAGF", "experiment": "Displacement of [125I]RANTES form CCR1 expressed in CHO cells by scintillation counting", "type": "cell-based"}, "[21]": {"test_system": "Human immunodeficiency virus 1", "experiment": "Antiviral activity against HIV1 NL4-3 infected in SCID mouse assessed as viral p24 antigen level in spleen at 10 mg/kg, po administered as single dose after 7 days", "type": "functional"}, "[22]": {"test_system": "C-X-C chemokine receptor type 4 (Homo sapiens), P61073 [H113A]", "sequence (P61073 whole entry H113A)": "as the sequence (P61073 whole entry H203A) above, with H113A, A203H counted along it", "settings": "HEK293"}, "[23]": {"molecular_target": "C-X-C chemokine receptor type 4 (Homo sapiens, UniProt P61073, W283A)", "sequence (P61073 whole entry W283A)": "as the sequence (P61073 whole entry H203A) above, with A203H, W283A counted along it"}, "[24]": {"test_system": "Human immunodeficiency virus 1", "experiment": "Antiviral activity against HIV1 A018G infected in human PBMC assessed as inhibition of viral p24 antigen production after 7 to 10 days by ELISA", "type": "functional, organism-based", "settings": "Human immunodeficiency virus 1, A018G"}, "[25]": {"experiment": "Tmax in Sprague-Dawley rat at 10 mg/kg, po administered as single dose", "settings": "in vivo"}, "[26]": {"test_system": "C-X-C chemokine receptor type 4 (Homo sapiens), P61073 [D262A]", "sequence (P61073 whole entry D262A)": "as the sequence (P61073 whole entry H203A) above, with A203H, D262A counted along it", "settings": "HEK293"}, "[27]": {"molecular_target": "T1, C-X-C chemokine receptor type 4", "experiment": "Inhibition of Mab 12G5 binding to CXCR4 expressed in human MOLT4 cells by FACS analysis", "type": "cell-based", "settings": "MOLT-4"}}, "note": "The source made the active and inactive calls. No cut-off for these calls is given here."}
{"smiles": "CCCN(CCC)CCCCN(C)Cc1ccc(CN(Cc2ncc[nH]2)Cc2nccn2C)cc1.O=C(O)C(O)C(O)C(=O)O", "values": [{"measurement": "Cmax", "setting": "[1]", "result": 86.3, "unit": "ng/mL"}, {"measurement": "IC50", "setting": "[2]", "result": 0.5, "unit": "nM"}, {"measurement": "IC90", "setting": "[3]", "result": 5.3, "unit": "nM"}, {"measurement": "IC50", "setting": "[4]", "result": 3.1, "unit": "nM"}, {"measurement": "Activity", "setting": "[5]", "result": "inactive"}, {"measurement": "IC50", "setting": "[6]", "result": 1.6, "unit": "nM"}, {"measurement": "IC50", "setting": "[7]", "result": 1.6, "unit": "nM"}, {"measurement": "IC50", "setting": "[8]", "result": 1, "unit": "nM"}, {"measurement": "IC90", "setting": "[9]", "result": 6.1, "unit": "nM"}, {"measurement": "inhibition", "setting": "[10]", "result": "Dose-dependent effect"}, {"measurement": "IC50", "setting": "[11]", "result": 0.8, "unit": "nM"}, {"measurement": "IC50", "setting": "[12]", "result": 1.5, "unit": "nM"}, {"measurement": "IC90", "setting": "[13]", "result": 7.4, "unit": "nM"}, {"measurement": "inhibition", "setting": "[14]", "result": "inactive"}, {"measurement": "half-life", "setting": "[15]", "result": 99, "unit": "h"}, {"measurement": "IC90", "setting": "[16]", "result": "> 10", "unit": "nM"}, {"measurement": "IC50", "setting": "[17]", "result": 0.8, "unit": "nM"}, {"measurement": "EC50", "setting": "[18]", "result": "> 200", "unit": "nM"}, {"measurement": "EC50", "setting": "[19]", "result": 0.33, "unit": "nM"}, {"measurement": "Activity", "setting": "[20]", "result": "inactive"}, {"measurement": "Activity", "setting": "[21]", "result": "<5", "unit": "pg/mL"}, {"measurement": "IC90", "setting": "[22]", "result": 6.3, "unit": "nM"}, {"measurement": "IC50", "setting": "[23]", "result": 1.3, "unit": "nM"}, {"measurement": "EC50", "setting": "[24]", "result": 1.3, "unit": "nM"}, {"measurement": "Tmax", "setting": "[25]", "result": 2.3, "unit": "h"}, {"measurement": "IC90", "setting": "[26]", "result": 8.1, "unit": "nM"}, {"measurement": "inhibition", "setting": "[27]", "result": "Dose-dependent effect"}]}
